54 compounds from publication PMC12040169 (PLOS Biology, 2025) can be followed below.

This data set in a line: in vitro. To be noted: human, hela cells, % viability.
As to `Nc1ncc(-c2cccc(F)c2)nc1-c1ccc(C(=O)N2CCOCC2)cc1` [CBK064131], the viability (as a rule, a read-out of living cells in per cent, often relative to untreated cells) at 28.5 h, 10 µM worked out at 88.4%.

Regarding `Nc1ncc(-c2cccs2)nc1-c1ccc(C(=O)O)cc1` [CBK064133], the viability at 28.5 h, 10 µM stood at 91.4%.

For the compound `Nc1ncc(-c2cccc(O)c2)nc1-c1ccc(CCC(=O)O)cc1` [CBK064135], the viability at 28.5 h, 10 µM amounted to 103%.

Take `CN1CCN(C(=O)c2cccc(-c3nc(-c4ccc(C#N)cc4)cnc3N)c2)CC1` [CBK064144]: the viability at 28.5 h, 10 µM was 100%.

Regarding `CCCC/C=C/c1cnc(N)c(N[C@H](C)c2ccccc2)n1` [CBK064148], the viability at 28.5 h, 10 µM came out at 95.1%.

Turning to `COCCn1c(=O)[nH]c2ncc(-c3ccsc3)nc21` [CBK064156], the viability at 28.5 h, 10 µM came to 108%.

`C[C@H](c1ccccc1)n1c(=O)[nH]c2ncc(-c3cccc(-c4ccccc4)c3)nc21` [CBK064158]: the viability at 28.5 h, 10 µM was 96.5%.

On to `CC(=O)Nc1cccc(-c2cnc3[nH]c(=O)n([C@@H](C)c4ccccc4)c3n2)c1` [CBK064159], for which the viability at 28.5 h, 10 µM worked out at 98.2%.

As to `C[C@@H](c1ccccc1)n1c(=O)[nH]c2ncc(-c3ccco3)nc21` [CBK064168], the viability at 28.5 h, 10 µM worked out at 112%.

In the case of `C[C@H](c1ccccc1)n1c(=O)[nH]c2ncc(-c3cccc4ncccc34)nc21` [CBK064173], the viability at 28.5 h, 10 µM worked out at 89.6%.

On to `COc1ccc(C(C)C)cc1-c1cnc2[nH]c(=O)n([C@H](C)c3ccccc3)c2n1` [CBK064181], for which the viability at 28.5 h, 10 µM is 87.3%.

For `O=c1[nH]c2ncc(-c3cccc(OC(F)(F)F)c3)nc2n1C1CCCCC1` [CBK064187], the viability at 28.5 h, 10 µM stood at 93.6%.

For `CC(=O)Nc1cccc(-c2cnc3[nH]c(=O)n([C@H](C)c4ccccc4)c3n2)c1` [CBK064188], the viability at 28.5 h, 10 µM was determined as 95.9%.

As for `C[C@@H](c1ccccc1)n1c(=O)[nH]c2ncc(-c3cccc(-c4ccccc4)c3)nc21` [CBK064192], the viability at 28.5 h, 10 µM came to 88.8%.

Regarding `CC(C)Cn1c(=O)[nH]c2ncc(-c3cccc4ccccc34)nc21` [CBK064194], the viability at 28.5 h, 10 µM was determined as 107%.

Regarding `COc1ccccc1-c1cnc2[nH]c(=O)n(C3CCCCC3)c2n1` [CBK064203], the viability at 28.5 h, 10 µM turned out to be 98.7%.

For `C[C@H](c1ccccc1)n1c(=O)[nH]c2ncc(-c3cccc(C(=O)NCCN(C)C)c3)nc21` [CBK064204], the viability at 28.5 h, 10 µM is 96.5%.

As for `COc1ccc(-c2cnc3[nH]c(=O)n(Cc4ccccc4)c3n2)cc1` [CBK064210], the viability at 28.5 h, 10 µM stood at 103%.

Regarding `O=c1[nH]c2ncc(-c3cccc4cccnc34)nc2n1C1CCCCC1` [CBK064215], the viability at 28.5 h, 10 µM was determined as 96%.

Consider `O=c1[nH]c2ncc(-c3ccsc3)nc2n1Cc1ccccc1` [CBK064227], for which the viability at 28.5 h, 10 µM worked out at 96.7%.

With `C[C@H](c1ccccc1)n1c(=O)[nH]c2ncc(-c3cccc4cccnc34)nc21` [CBK064237], the viability at 28.5 h, 10 µM was 44.4%.

Turning to `C[C@H](c1ccccc1)n1c(=O)[nH]c2ncc(-c3cccc4ccccc34)nc21` [CBK064241], the viability at 28.5 h, 10 µM worked out at 101%.

In the case of `O=c1[nH]c2ncc(-c3cccc4ncccc34)nc2n1Cc1ccccc1` [CBK064245], the viability at 28.5 h, 10 µM worked out at 89.4%.

On to `CN(C)CCn1c(=O)[nH]c2ncc(-c3ccco3)nc21` [CBK064251], for which the viability at 28.5 h, 10 µM came to 97.1%.

Consider `O=c1[nH]c2ncc(-c3cccc(-c4ccccc4)c3)nc2n1Cc1ccccc1` [CBK064252], for which the viability at 28.5 h, 10 µM was found to be 96.1%.

With `O=c1[nH]c2ncc(-c3ccc(-c4ccccc4)cc3)nc2n1Cc1cccnc1` [CBK064282], the viability at 28.5 h, 10 µM was 94%.

`COc1ccccc1-c1cnc2[nH]c(=O)n(CC3CCOCC3)c2n1` [CBK064286]: the viability at 28.5 h, 10 µM came to 100%.

On to `O=c1[nH]c2ncc(-c3ccsc3)nc2n1CC1CCOCC1` [CBK064293], for which the viability at 28.5 h, 10 µM was found to be 86.3%.

For `CN(C)CCn1c(=O)[nH]c2ncc(-c3ccoc3)nc21` [CBK064294], the viability at 28.5 h, 10 µM came to 92.6%.

In the case of `O=C(c1ccc(-c2cnc3[nH]c(=O)n(CCc4cccnc4)c3n2)cc1)N1CCOCC1` [CBK064334], the viability at 28.5 h, 10 µM stood at 99.1%.

With `COCCCn1c(=O)[nH]c2ncc(-c3cc(C(C)C)ccc3OC)nc21` [CBK064351], the viability at 28.5 h, 10 µM came to 82.8%.

Regarding `CC(C)Cn1c(=O)[nH]c2ncc(-c3ccco3)nc21` [CBK064353], the viability at 28.5 h, 10 µM was determined as 91.9%.

With `C[C@H](c1ccccc1)n1c(=O)[nH]c2ncc(-c3ccc(N(C)C)cc3)nc21` [CBK064367], the viability at 28.5 h, 10 µM worked out at 102%.

In the case of `CCCC/C=C/c1cnc2[nH]c(=O)n(Cc3cccs3)c2n1` [CBK064373], the viability at 28.5 h, 10 µM is 83.6%.

In the case of `CC(=O)c1ccc(-c2cnc3[nH]c(=O)n([C@H](C)c4ccccc4)c3n2)s1` [CBK064375], the viability at 28.5 h, 10 µM was 98.2%.

Regarding `C[C@H](c1ccccc1)n1c(=O)[nH]c2ncc(-c3ccc(C(N)=O)cc3)nc21` [CBK064377], the viability at 28.5 h, 10 µM worked out at 111%.

In the case of `C[C@H](c1ccccc1)n1c(=O)[nH]c2ncc(-c3ccco3)nc21` [CBK064415], the viability at 28.5 h, 10 µM is 98.1%.

`COCCCn1c(=O)[nH]c2ncc(-c3cccc(NC(C)=O)c3)nc21` [CBK064433]: the viability at 28.5 h, 10 µM was 97.5%.

With `O=c1[nH]c2ncc(-c3cccc(Br)c3)nc2n1CCc1cccnc1` [CBK064457], the viability at 28.5 h, 10 µM came to 103%.

For the compound `COc1cc(Cn2c(=O)[nH]c3ncc(-c4ccco4)nc32)cc(OC)c1OC` [CBK064461], the viability at 28.5 h, 10 µM is 106%.

For the compound `O=c1[nH]c2ncc(-c3ccco3)nc2n1CCc1cccnc1` [CBK064494], the viability at 28.5 h, 10 µM turned out to be 94.7%.

With `COc1ccc(C(C)C)cc1-c1cnc2[nH]c(=O)n([C@@H](CO)C(C)C)c2n1` [CBK064495], the viability at 28.5 h, 10 µM is 90.3%.

Take `CCCC/C=C/c1cnc2[nH]c(=O)n(CCc3cccnc3)c2n1` [CBK064496]: the viability at 28.5 h, 10 µM was found to be 92.7%.

In the case of `COCCCn1c(=O)[nH]c2ncc(-c3cccc(OC)c3)nc21` [CBK064519], the viability at 28.5 h, 10 µM worked out at 108%.

As to `O=C(c1ccc(-c2cnc3[nH]c(=O)n(C4CCCCC4)c3n2)cc1)N1CCOCC1` [CBK064566], the viability at 28.5 h, 10 µM came to 106%.

For the compound `CN(C)c1cccc(-c2cnc3[nH]c(=O)n(CCc4ccncc4)c3n2)c1` [CBK064628], the viability at 28.5 h, 10 µM was 91.1%.

In the case of `O=c1[nH]c2ncc(-c3ccoc3)nc2n1Cc1ccco1` [CBK064639], the viability at 28.5 h, 10 µM amounted to 102%.

As to `O=c1[nH]c2ncc(-c3ccoc3)nc2n1Cc1cccs1` [CBK064647], the viability at 28.5 h, 10 µM was determined as 90.3%.

With `O=c1[nH]c2ncc(-c3ccsc3)nc2n1-c1ccc2[nH]ccc2c1` [CBK064650], the viability at 28.5 h, 10 µM is 108%.

On to `CN1CCN(C(=O)c2ccc(-c3cnc4[nH]c(=O)n(Cc5ccncc5)c4n3)cc2)CC1` [CBK064679], for which the viability at 28.5 h, 10 µM stood at 101%.

As for `CS(=O)(=O)c1ccc(-c2cnc3[nH]c(=O)n(-c4ccc5[nH]ccc5c4)c3n2)cc1` [CBK064691], the viability at 28.5 h, 10 µM worked out at 96.6%.

`CC(C)(CO)Cn1c(=O)[nH]c2ncc(-c3cccnc3)nc21` [CBK064697]: the viability at 28.5 h, 10 µM was 107%.

Consider `CS(=O)(=O)Nc1cccc(-c2cnc3[nH]c(=O)n(Cc4cccs4)c3n2)c1` [CBK064708], for which the viability at 28.5 h, 10 µM is 91%.

For `C[C@H](c1ccccc1)n1c(=O)[nH]c2ncc(-c3cncc4ccccc34)nc21` [CBK064709], the viability at 28.5 h, 10 µM turned out to be 90.4%.
